Reference: paper PMC6270837, “Preparation and Biological Properties of Ring-Substituted Naphthalene-1-Carboxanilides” (Molecules, 2014)
Entries after “also recorded” stand apart in the source; their conditions may differ. Read-outs that look alike come from different tables or passages of the source.

How the values were obtained:
physchem = conditions: aqueous buffer, kinetic from dmso stock
[1] = system: human monocytic leukemia THP-1 cell line; test: In vitro cytotoxicity assay (LDH)
Method: Human monocytic leukemia THP-1 cells were obtained from the European Collection of Cell Cultures (ECACC, Salisbury, UK; Methods of characterization: DNA Fingerprinting (Multilocus probes) and isoenzyme analysis). These cells were routinely cultured in RPMI 1640 (Lonza, Verviers, Belgium) medium supplemented with 10% fetal bovine serum (FBS, Sigma-Aldrich, St. Louis, MO, USA), 2% L-glutamine, 1% penicillin and streptomycin (Lonza) at 37 °C with 5% CO2. Cells were passaged at approximately one-week intervals. Cells were routinely tested for the absence of mycoplasma (Hoechst 33258 staining method). The tested compounds were dissolved in DMSO (Sigma-Aldrich) and added in five increasing concentrations to the cell suspension in the culture medium. The maximum concentration of DMSO in the assays never exceeded 0.1%. Subsequently, the cells were incubated for 24 h at 37 °C with 5% CO2 to various compound concentrations ranging from […] in RPMI 1640 medium. Cell toxicity was determined using a Cytotoxicity Detection Kit^PLUS Lactate dehydrogenase (LDH) assay kit (Roche Diagnostics, Mannheim, Germany) according to the manufacturer’s instructions, as described previously. For LDH assays, cells were seeded into 96-well plates (5 × 10^4 cells/well in 100 μL culture medium) in triplicate in serum-free RPMI 1640 medium, and measurements at 492 nm wavelength (Synergy 2 Multi-Mode Microplate Reader, BioTek, Winooski, VT, USA) were taken 24 h after the treatment with tested compounds. The median lethal dose values, LD50, were deduced through the production of a dose-response curve. All data were evaluated using GraphPad Prism 5.00 software (GraphPad Software, San Diego, CA, USA).
LDH Test Principle: The LDH activity is determined by a coupled enzymatic reaction, whereby the tetrazolium salt INT is reduced to formazan. An increase in the amount of dead or plasma membrane damaged cells results in an increase of LDH enzyme activity in the culture supernatant. This increase in the amount of enzyme activity in the supernatant directly correlates to the amount of formazan formed during a limited time period.

[2] = system: M. avium subsp. paratuberculosis; test: MTT assay on mycobacteria; format: cell-based, Mycobacterium avium subsp. paratuberculosis; conditions: lowest tested concentration 8 µg/mL (ca. 30 µmol/L), four hours of incubation
Method: Additionally, a standard MTT assay was performed on these same compounds. The MTT assay is a well-characterized method of assessing cell growth through measurement of respiration.
For the MTT assay, the same 96-well plate set up and incubation conditions listed above were used. After the incubation period, a 10% addition of MTT reagent was mixed into each well and incubated at 37 °C for 4 h. The reagent and media were then aspirated from the wells to which 50 µL DMSO was then added and plates were read at 550 nm.

[3] = system: photosynthetic electron transport (PET) in isolated spinach chloroplasts; test: Inhibition of photosynthetic electron transport (PET) in isolated spinach chloroplasts; format: biochemical, Spinacia oleracea L.; conditions: DCPIP photoreduction
Method: The PET-inhibiting activity was expressed by IC50 value, i.e., compound concentration in mol/L causing 50% inhibition of PET.
(§1) Chloroplasts were prepared from spinach (Spinacia oleracea L.) according to Masarovicova and Kralova. The inhibition of photosynthetic electron transport (PET) in isolated spinach chloroplasts was determined spectrophotometrically (Genesys 6, Thermo Scientific, USA), using an artificial electron acceptor 2,6-dichlorophenol-indophenol (DCIPP) according to Kralova et al., and the rate of photosynthetic electron transport was monitored as a photoreduction of DCPIP. The measurements were carried out in phosphate buffer (0.02 mol/L, pH 7.2) containing sucrose (0.4 mol/L), MgCl2 (0.005 mol/L) and NaCl (0.015 mol/L). The chlorophyll content was 30 mg/L in these experiments and the samples were irradiated (~100 W/m^2 with 10 cm distance) with a halogen lamp (250 W) using a 4 cm water filter to prevent warming of the samples (suspension temperature 22 °C). The studied compounds were dissolved in DMSO due to their limited water solubility. […] The inhibitory efficiency of the studied compounds was expressed by IC50 values, i.e., by molar concentration of the compounds causing 50% decrease in the oxygen evolution rate relative to the untreated control.

[4] = system: Mycobacterium avium subsp. paratuberculosis CIT03; test: In vitro antimycobacterial evaluation (MIC/IC90, alamarBlue); format: cell-based; conditions: for MIC: Mycobacterium avium
Method: The MIC/IC90 value is routinely and widely used in bacterial assays and is a standard detection limit according to the Clinical and Laboratory Standards Institute.
A well-characterized clinical isolate of Mycobacterium avium subsp. paratuberculosis (CIT03) was grown in Middlebrook broth (MB), supplemented with Oleic-Albumin-Dextrose-Catalase supplement (OADC, Becton, Dickinson and Comp., Franklin Lakes, NJ, USA) and mycobactin J (2 µg/mL). Identification of this isolate was performed using biochemical and molecular protocols. At log phase growth, a culture sample (10 mL) was centrifuged at 15,000 rpm/20 min using a bench top centrifuge (Model CR 4-12, Jouan Inc., Winchester, VA, USA). Following removal of the supernatant, the pellet was washed in fresh Middlebrook 7H9GC broth and re-suspended in fresh supplemented MB (10 mL). The turbidity was adjusted to match McFarland standard No. 1 (3 × 10^8 cfu) with MB broth. A further 1:20 dilution of the culture was then performed in MB broth. The antimicrobial susceptibility of the mycobacterial species was investigated in a 96-well plate format. In these experiments, sterile deionized water (300 µL) was added to all outer-perimeter wells of the plates to minimize evaporation of the medium in the test wells during incubation. Each evaluated compound (100 µL) was incubated with the mycobacterial species (100 µL). Dilutions of each compound were prepared in duplicate. For all synthesized compounds, final concentrations ranged from 1,000 µg/mL to 8 µg/mL. All compounds were prepared in DMSO and subsequent dilutions were made in supplemented MB. The plates were sealed with parafilm and incubated at 37 °C for 11 days.
Following incubation, a 10% addition of alamarBlue (AbD Serotec, Kidlington, UK) was mixed into each well and readings at 570 nm and 600 nm were taken, initially for background subtraction and subsequently after 24 h re-incubation. […] For non-interfering compounds, a blue colour in the well was interpreted as an absence of growth and a pink colour was scored as growth. Furthermore percent reduction of alamarBlue was calculated to generate quantitative data on cell viability during exposure to antimycobacterial compounds over a period of 5 days. The formula used to determine percent reduction of alamarBlue has been standardized for colorimetric analysis by Abd Serotec.
The MIC value is routinely and widely used in bacterial assays and is a standard detection limit according to the Clinical and Laboratory Standards Institute.

[5] = Solubility in PET tested medium; format: physicochemical; conditions: PET assay medium, phosphate buffer pH 7.2, DMSO up to 4%
Method: as §1

[6] = M. avium subsp. paratuberculosis, comparison of MICs

Structure (SMILES): Cc1ccc(NC(=O)c2cccc3ccccc23)cc1 [Compound 3c, N-(4-Methylphenyl)naphthalene-1-carboxamide]
- solubility (physchem): ≤ 30 µM
- LD50 ([1]; human, 24 h): >30 µmol/L
- lethal effect / toxicity on THP-1 cells ([1]; treatment with 30 μmol/L): did not lead to significant lethal effect; also recorded: insignificant toxicity
- reduction in activity (MTT) [2]: more than 80%
- IC50 [3]: 381 µM
- antimycobacterial activity relative to ciprofloxacin [4, 6]: three-fold higher
- antimycobacterial activity relative to rifampicin [4, 6]: two-fold higher
- MIC ([4]; 264 h, clinical isolate CIT03, 11 days at 37 °C, alamarBlue, MIC = 90% or greater reduction of growth, read-out: MAP MIC/IC90): 57 µM
- MIC ([4]; clinical isolate CIT03, read-out: MIC): 15 µg/mL
- MAP MIC/IC90 ([4]; clinical isolate CIT03, 11 days at 37 °C, alamarBlue, MIC = 90% or greater reduction of growth): 57 µM
- solubility in tested medium (PET experiments) [5]: limited solubility
